Numbers after ± are expanded uncertainties.
Assays:
[1] = xn = mol fraction of the nth substance listed; settings: 101 kPa, Liquid; for viscosity: Capillary tube (Ostwald / Ubbelohde) method; for molar volume: Pycnometric method
[2] = 101 kPa, Liquid; for viscosity: Capillary tube (Ostwald / Ubbelohde) method; for molar volume: Pycnometric method

CCCCCCO [hexan-1-ol] + Cc1cccc(C)c1
[1], x1 = 1
Settings	molar volume [m3/mol]	viscosity [mPa·s]
303.15 K	0.0001259 ± 1.5e-07	3.829 ± 0.048
313.15 K	0.000127 ± 1.5e-07	2.879 ± 0.036
323.15 K	0.0001281 ± 1.6e-07	2.215 ± 0.028

Cc1cccc(C)c1 [1,3-dimethylbenzene] + CCCCCCO
[1]
Settings	molar volume, 303.15 K [m3/mol]	molar volume, 313.15 K [m3/mol]	molar volume, 323.15 K [m3/mol]	viscosity, 303.15 K [mPa·s]	viscosity, 313.15 K [mPa·s]	viscosity, 323.15 K [mPa·s]
x2 = 0	0.0001241 ± 1.5e-07	0.0001254 ± 1.5e-07	0.0001266 ± 1.6e-07	0.5501 ± 0.0073	0.4944 ± 0.0067	0.4472 ± 0.0061
x2 = 0.1	0.0001243 ± 1.5e-07	0.0001256 ± 1.5e-07	0.0001269 ± 1.6e-07	0.5979 ± 0.0079	0.5309 ± 0.0071	0.4743 ± 0.0064
x2 = 0.2	0.0001246 ± 1.5e-07	0.0001258 ± 1.5e-07	0.0001272 ± 1.6e-07	0.6825 ± 0.009	0.5975 ± 0.0079	0.5277 ± 0.0071
x2 = 0.3	0.0001248 ± 1.5e-07	0.000126 ± 1.5e-07	0.0001273 ± 1.6e-07	0.7998 ± 0.01	0.6894 ± 0.0091	0.6009 ± 0.008
x2 = 0.4	0.0001249 ± 1.5e-07	0.0001262 ± 1.5e-07	0.0001275 ± 1.6e-07	0.9537 ± 0.012	0.8068 ± 0.01	0.6925 ± 0.0091
x2 = 0.5	0.0001251 ± 1.5e-07	0.0001263 ± 1.5e-07	0.0001276 ± 1.6e-07	1.161 ± 0.015	0.9645 ± 0.013	0.8141 ± 0.011
x2 = 0.6	0.0001253 ± 1.5e-07	0.0001265 ± 1.5e-07	0.0001277 ± 1.6e-07	1.442 ± 0.018	1.173 ± 0.015	0.97 ± 0.013
x2 = 0.7	0.0001254 ± 1.5e-07	0.0001266 ± 1.5e-07	0.0001278 ± 1.6e-07	1.833 ± 0.023	1.457 ± 0.019	1.179 ± 0.015
x2 = 0.8	0.0001255 ± 1.5e-07	0.0001267 ± 1.5e-07	0.0001279 ± 1.6e-07	2.357 ± 0.03	1.833 ± 0.023	1.448 ± 0.019
x2 = 0.9	0.0001257 ± 1.5e-07	0.0001269 ± 1.5e-07	0.000128 ± 1.6e-07	3.032 ± 0.038	2.309 ± 0.029	1.797 ± 0.023

CCCCCCO [hexan-1-ol]
[2]
Settings	molar volume [m3/mol]	viscosity [mPa·s]
303.15 K	0.0001259 ± 1.5e-07	3.829 ± 0.048
313.15 K	0.000127 ± 1.5e-07	2.879 ± 0.036
323.15 K	0.0001281 ± 1.6e-07	2.215 ± 0.028

Cc1cccc(C)c1 [1,3-dimethylbenzene]
[2]
Settings	molar volume [m3/mol]	viscosity [mPa·s]
303.15 K	0.0001241 ± 1.5e-07	0.5501 ± 0.0073
313.15 K	0.0001254 ± 1.5e-07	0.4944 ± 0.0067
323.15 K	0.0001266 ± 1.6e-07	0.4472 ± 0.0061

From the NIST ThermoML archive (doi:10.1021/je900219w)
